Assay results as given in ChEMBL document CHEMBL1201862, “PubChem BioAssay data set” (2004).
The source made the active and inactive calls.

Experiments:
Bcl-2-like protein 1 = Bcl-2-like protein 1 (Homo sapiens, UniProt Q07817); assay: blockers of BCLXL peptide binding – biochemical, fluorescence polarization, 1536-well, selectivity assay for MCL1 inhibitor project, dose response (AID 2218)
[1] = biological target: Induced myeloid leukemia cell differentiation protein Mcl-1 (Homo sapiens, UniProt Q07820); assay: blockers of MCL1 binding to BIM peptide – biochemical, fluorescence polarization, BIM-BH3 peptide, 1536-well, dose response (AID 2217)
Induced myeloid leukemia cell differentiation protein Mcl-1, sequence (Q07820 whole entry): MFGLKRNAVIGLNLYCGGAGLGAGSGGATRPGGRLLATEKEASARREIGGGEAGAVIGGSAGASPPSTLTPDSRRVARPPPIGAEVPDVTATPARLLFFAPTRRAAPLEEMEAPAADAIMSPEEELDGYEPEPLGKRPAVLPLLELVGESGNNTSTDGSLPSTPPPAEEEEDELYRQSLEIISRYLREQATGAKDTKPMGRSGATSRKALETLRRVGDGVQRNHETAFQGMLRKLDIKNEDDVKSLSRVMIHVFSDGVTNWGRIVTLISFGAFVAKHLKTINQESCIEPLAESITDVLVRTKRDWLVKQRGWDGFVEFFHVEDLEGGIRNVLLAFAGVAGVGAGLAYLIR

[2] = NIH-3T3 fibroblast cytotoxicity, dose response, cytotoxicity control, cell-based, fluorescence, Alamar Blue, secondary assay (AID 2327); assay type: functional;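 also: NIH-3T3 mouse fibroblasts cultured with fluconazole at 8 µg/mL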
[3] = biological target: T1, Sphingosine 1-phosphate receptor 4 (Homo sapiens, UniProt O95977); assay: Fluorescence dose response cell-based high throughput screening assay for antagonists of the Sphingosine 1-Phosphate Receptor 4 (S1P4). [Related pubchem assays: 1524 (Confirmation in triplicates.), 1510 (Primary screen.)]; assay type: functional
T1 sequence (O95977 whole entry): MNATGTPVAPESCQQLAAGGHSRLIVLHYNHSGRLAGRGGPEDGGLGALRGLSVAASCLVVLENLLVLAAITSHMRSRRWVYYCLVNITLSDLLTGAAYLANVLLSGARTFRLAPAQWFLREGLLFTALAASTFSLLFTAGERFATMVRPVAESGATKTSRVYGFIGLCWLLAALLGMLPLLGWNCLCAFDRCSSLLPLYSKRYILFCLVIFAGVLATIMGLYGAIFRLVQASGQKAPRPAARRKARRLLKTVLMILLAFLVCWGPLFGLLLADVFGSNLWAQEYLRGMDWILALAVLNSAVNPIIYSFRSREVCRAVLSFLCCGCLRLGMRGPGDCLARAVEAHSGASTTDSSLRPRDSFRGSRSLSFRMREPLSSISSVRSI

[4] = biological target: T2, Replicative DNA helicase DnaB (Mycobacterium tuberculosis, UniProt P9WMR3); assay: DnaB intein splicing inhibitors, dose response, biochemical, cell-free fluorescence (AID 449749); assay type: functional
T2 sequence (P9WMR3 whole entry): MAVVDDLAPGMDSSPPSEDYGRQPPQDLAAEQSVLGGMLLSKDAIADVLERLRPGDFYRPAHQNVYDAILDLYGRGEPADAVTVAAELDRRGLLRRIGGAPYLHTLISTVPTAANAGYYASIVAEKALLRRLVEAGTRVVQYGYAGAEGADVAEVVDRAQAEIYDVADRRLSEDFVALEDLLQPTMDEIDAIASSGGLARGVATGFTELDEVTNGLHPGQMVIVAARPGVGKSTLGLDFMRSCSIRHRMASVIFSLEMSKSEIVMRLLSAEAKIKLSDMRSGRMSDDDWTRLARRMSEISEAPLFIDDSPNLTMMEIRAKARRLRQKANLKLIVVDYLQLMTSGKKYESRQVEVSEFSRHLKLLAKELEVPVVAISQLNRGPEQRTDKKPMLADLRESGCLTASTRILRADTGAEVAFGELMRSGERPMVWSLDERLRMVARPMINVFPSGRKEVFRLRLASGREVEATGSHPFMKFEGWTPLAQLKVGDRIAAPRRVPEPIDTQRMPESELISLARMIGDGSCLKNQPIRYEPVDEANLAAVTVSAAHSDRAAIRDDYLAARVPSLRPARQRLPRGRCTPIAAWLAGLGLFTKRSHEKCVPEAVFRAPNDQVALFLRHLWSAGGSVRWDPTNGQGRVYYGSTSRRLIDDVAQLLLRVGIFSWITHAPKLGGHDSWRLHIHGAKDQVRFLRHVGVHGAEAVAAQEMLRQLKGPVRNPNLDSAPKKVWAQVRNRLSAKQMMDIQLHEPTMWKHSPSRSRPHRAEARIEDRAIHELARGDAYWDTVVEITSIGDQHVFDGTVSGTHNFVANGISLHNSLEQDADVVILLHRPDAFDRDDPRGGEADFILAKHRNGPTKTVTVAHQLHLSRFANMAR

[5] = biological target: Sphingosine 1-phosphate receptor 1 (Homo sapiens, UniProt P21453); assay type: functional;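 also: Tango beta-arrestin reporter U2OS cells stimulated with S1P near its EC80; inhibitor potency meaning antagonism of receptor activation by the natural agonist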
Sphingosine 1-phosphate receptor 1, sequence (P21453 whole entry): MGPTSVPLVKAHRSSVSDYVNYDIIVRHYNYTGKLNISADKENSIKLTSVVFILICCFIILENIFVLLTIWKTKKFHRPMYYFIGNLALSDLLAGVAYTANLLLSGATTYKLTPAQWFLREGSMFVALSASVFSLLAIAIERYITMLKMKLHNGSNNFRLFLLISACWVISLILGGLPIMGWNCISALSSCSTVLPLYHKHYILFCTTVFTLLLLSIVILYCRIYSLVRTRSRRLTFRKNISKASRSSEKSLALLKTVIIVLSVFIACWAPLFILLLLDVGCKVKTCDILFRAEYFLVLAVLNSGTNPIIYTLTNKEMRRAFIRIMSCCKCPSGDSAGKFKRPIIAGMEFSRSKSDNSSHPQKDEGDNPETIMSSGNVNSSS

[6] = fluconazole-exposed Candida albicans growth modulators – fluorescence, retest, confirmation (AID 2467); assay type: functional, cell-based
Protein RecA = biological target: T3, Protein RecA (Mycobacterium tuberculosis, UniProt P9WHJ3); assay: Fluorescence Cell-Free Homogeneous Dose Retest to Identify Inhibitors of RecA-Intein Splicing Activity. [Related pubchem assays (depositor defined):AID2097, AID2223, AID489010, AID492950]; assay type: functional
T3 sequence (P9WHJ3 whole entry): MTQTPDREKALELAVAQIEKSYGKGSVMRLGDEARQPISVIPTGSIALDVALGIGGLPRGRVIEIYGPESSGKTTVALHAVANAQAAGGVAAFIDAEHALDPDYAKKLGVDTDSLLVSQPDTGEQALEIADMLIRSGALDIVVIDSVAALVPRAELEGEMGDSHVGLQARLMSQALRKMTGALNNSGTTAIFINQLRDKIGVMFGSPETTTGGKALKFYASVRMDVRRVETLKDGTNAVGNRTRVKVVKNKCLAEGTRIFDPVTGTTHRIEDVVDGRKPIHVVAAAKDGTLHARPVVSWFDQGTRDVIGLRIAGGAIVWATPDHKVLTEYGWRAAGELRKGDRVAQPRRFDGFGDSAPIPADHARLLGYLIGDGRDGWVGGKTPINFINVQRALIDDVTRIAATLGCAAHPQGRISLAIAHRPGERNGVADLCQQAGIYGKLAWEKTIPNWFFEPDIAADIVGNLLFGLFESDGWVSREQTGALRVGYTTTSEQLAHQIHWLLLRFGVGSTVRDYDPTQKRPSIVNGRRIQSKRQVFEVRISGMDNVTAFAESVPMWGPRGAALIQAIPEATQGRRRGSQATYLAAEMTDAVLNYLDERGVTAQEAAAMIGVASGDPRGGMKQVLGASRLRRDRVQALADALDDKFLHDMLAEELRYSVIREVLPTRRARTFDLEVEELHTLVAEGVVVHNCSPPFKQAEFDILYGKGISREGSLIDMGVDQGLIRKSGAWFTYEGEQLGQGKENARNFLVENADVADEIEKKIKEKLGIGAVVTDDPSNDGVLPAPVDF

[7] = biological target: T4, Heat shock factor protein 1 (Mus musculus, UniProt P38532); assay: enhancement of HSF1-driven luciferase signal – cell-based, NIH3T3, luminescence, dose retest, confirmation (AID 435004); assay type: functional;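 also: stress induced by proteasome inhibitor MG132 added 30 min after compound; luciferase reporter driven by HSF1 response element in NIH3T3 cells; actives raise luminescence as potentiators of the MG132 stress response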
T4 sequence (P38532 whole entry): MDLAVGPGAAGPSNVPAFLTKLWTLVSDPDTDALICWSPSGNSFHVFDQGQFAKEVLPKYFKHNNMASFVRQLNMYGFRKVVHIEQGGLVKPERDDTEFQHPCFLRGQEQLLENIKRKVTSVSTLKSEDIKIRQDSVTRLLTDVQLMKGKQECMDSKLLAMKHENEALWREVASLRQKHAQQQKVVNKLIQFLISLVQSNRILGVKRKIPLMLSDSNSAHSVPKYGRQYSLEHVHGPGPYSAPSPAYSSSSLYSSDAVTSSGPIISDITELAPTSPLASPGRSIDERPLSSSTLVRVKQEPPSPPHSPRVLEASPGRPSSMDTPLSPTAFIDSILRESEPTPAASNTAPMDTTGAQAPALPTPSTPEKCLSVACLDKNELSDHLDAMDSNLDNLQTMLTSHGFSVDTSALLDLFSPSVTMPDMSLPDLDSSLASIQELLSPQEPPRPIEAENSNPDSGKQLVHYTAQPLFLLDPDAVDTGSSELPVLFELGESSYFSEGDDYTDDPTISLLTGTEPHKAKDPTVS

Bcl-2-like protein 1, sequence (Q07817 whole entry): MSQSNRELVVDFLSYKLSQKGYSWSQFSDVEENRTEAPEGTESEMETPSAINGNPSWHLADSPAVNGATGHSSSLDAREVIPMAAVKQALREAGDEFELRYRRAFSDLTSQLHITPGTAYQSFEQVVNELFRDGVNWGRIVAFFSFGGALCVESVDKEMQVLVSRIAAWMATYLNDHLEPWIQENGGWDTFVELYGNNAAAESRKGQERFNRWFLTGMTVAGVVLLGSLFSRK

Compound	IC50 (Bcl-2-like protein 1)	IC50 [1]	EC50 [2]	IC50 [3]	AC50 [4]	IC50 [5]	EC50 [6]	EC50 (Protein RecA)	EC50 [7]
Cc1ccccc1OCC(=O)OCC(=O)Nc1ncc(Cl)c(C)c1Cl	30.4 µM (not active)	15.7 µM (not active)	–	–	–	–	–	–	–
COc1cccc(-n2nnnc2S(C)(=O)=O)c1	–	–	3.96 µM (inconclusive)	1.26 µM (active)	3.14 µM (active)	23.6 µM (not active)	1.76 µM (active)	1.1 µM (active)	6.59 µM (active)
